Source: the supplement of paper PMC6335503
± gives the standard deviation of the averaged measurements.

Experiments:
Assay in all cases: cell viability, percent of DMSO control (CellTiter-Glo); higher = more viable cells
Conditions in all cases: 72 h
[1] = tested on: DFTD cell line T2 (05/2569)
Procedure: (§1)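 Eight-point dose titration of 41 screen hits in triplicate wells on four Tasmanian devil DFTD tumour cell lines (T1-T4) and devil fibroblasts, 384-well plates. Viability was read by CellTiter-Glo (ATP) after 72 h at 37 °C. Percent of control per plate: DMSO wells = 100%, positive-control wells = 0%.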

[2] = tested on: DFTD cell line T1 (06/2887)
Procedure: as §1

[3] = tested on: DFTD cell line T3 (06/0368)
Procedure: as §1

[4] = tested on: DFTD cell line T4 (07/0192)
Procedure: as §1

C=CC(=O)N1CCC(Oc2cc3c(Nc4ccc(Cl)c(Cl)c4F)ncnc3cc2OC)CC1 [Poziotinib (HM781-36B)]
cell viability [%]
Conditions | 0.00617 µM | 0.0185 µM | 0.0556 µM | 0.166667 µM | 0.5 µM | 1.5 µM | 4.5 µM | 13.5 µM
[1] | 87.7 ± 9.9 | 49.6 ± 13 | 41.5 ± 0.83 | 38.3 ± 5.7 | 39 ± 20 | 26.8 ± 2.8 | 22.5 ± 6 | 17 ± 10
[2] | 56.7 ± 5.5 | 29.4 ± 11 | 24.3 ± 1.4 | 29.3 ± 5.8 | 28 ± 19 | 24.4 ± 3.6 | 26.8 ± 5.1 | 26.6 ± 9.2
[3] | 87 ± 3.7 | 52.5 ± 19 | 44 ± 6.7 | 44.6 ± 10 | 42.2 ± 18 | 30.8 ± 4.9 | 35.9 ± 7.9 | 33 ± 9.1
[4] | 88.7 ± 9.5 | 44.9 ± 16 | 30.6 ± 1.8 | 26.5 ± 8.9 | 27.4 ± 18 | 27.1 ± 9.2 | 22.8 ± 8.3 | 21.4 ± 9.4

O=C(/C=C/c1cccc(S(=O)(=O)Nc2ccccc2)c1)NO [RLM 2-89]
cell viability [%]
Conditions | 0.000617 µM | 0.00185 µM | 0.00556 µM | 0.0167 µM | 0.05 µM | 0.15 µM | 0.45 µM | 1.35 µM
[1] | 110 ± 43 | 96.3 ± 17 | 118 ± 48 | 106 ± 23 | 125 ± 3.9 | 82.3 ± 13 | 28.8 ± 9.1 | 20.7 ± 7.2
[2] | 130 ± 44 | 115 ± 22 | 116 ± 43 | 113 ± 26 | 114 ± 12 | 52.6 ± 16 | 20.5 ± 14 | 17.4 ± 3.4
[3] | 120 ± 46 | 103 ± 20 | 116 ± 57 | 121 ± 29 | 128 ± 20 | 77.7 ± 10 | 32.4 ± 11 | 28.9 ± 0.38
[4] | 121 ± 34 | 109 ± 17 | 87.9 ± 45 | 125 ± 25 | 123 ± 42 | 83.5 ± 18 | 38.1 ± 11 | 19.1 ± 3

C=CC(=O)Nc1cccc(Nc2nc(Nc3ccc(N4CCN(C(C)=O)CC4)cc3OC)ncc2C(F)(F)F)c1 [Rociletinib (CO-1686, AVL-301)]
cell viability [%]
Conditions | 0.00617 µM | 0.0185 µM | 0.0556 µM | 0.166667 µM | 0.5 µM | 1.5 µM | 4.5 µM | 13.5 µM
[1] | 119 ± 8.6 | 108 ± 48 | 108 ± 22 | 104 ± 15 | 86.5 ± 9.8 | 63.1 ± 14 | 33.7 ± 7.7 | 12 ± 3.7
[2] | 121 ± 3 | 114 ± 49 | 113 ± 9.9 | 92.4 ± 24 | 80.6 ± 8.4 | 41.4 ± 18 | 16.9 ± 8.2 | 4.81 ± 0.32
[3] | 127 ± 12 | 113 ± 31 | 94.5 ± 20 | 99.1 ± 9.2 | 101 ± 18 | 58.2 ± 14 | 40.4 ± 8.9 | 17.4 ± 9.4
[4] | 116 ± 5.8 | 101 ± 9.1 | 102 ± 31 | 89.6 ± 5.2 | 88.6 ± 5.1 | 56.6 ± 12 | 32.4 ± 13 | 11.9 ± 5

Cn1cnc2c(F)c(Nc3ccc(Br)cc3Cl)c(C(=O)NOCCO)cc21.O=S(=O)(O)O [Selumetinib (AZD6244)]
cell viability [%]
Conditions | 0.00617 µM | 0.0185 µM | 0.0556 µM | 0.166667 µM | 0.5 µM | 1.5 µM | 4.5 µM | 13.5 µM
[1] | 98.8 ± 17 | 102 ± 33 | 108 ± 44 | 63 ± 17 | 51.7 ± 10 | 39.3 ± 12 | 35.4 ± 14 | 35.8 ± 11
[2] | 104 ± 13 | 100 ± 46 | 104 ± 38 | 57 ± 15 | 41 ± 15 | 35.4 ± 10 | 29.1 ± 12 | 33.4 ± 13
[3] | 102 ± 24 | 112 ± 26 | 99.1 ± 16 | 75.3 ± 18 | 63.7 ± 9.9 | 56.9 ± 8 | 42.5 ± 6.7 | 50.7 ± 17
[4] | 89 ± 6.7 | 105 ± 26 | 88 ± 22 | 62.8 ± 3.8 | 56.2 ± 8.1 | 46 ± 3.4 | 35 ± 1.9 | 31.1 ± 8.4

CC(C)(C)P(=NC(=S)NCCCO)(N1CCCCCC1)N1CCCCCC1 [T0503-0280]
cell viability [%]
Conditions | 0.00617 µM | 0.0185 µM | 0.0556 µM | 0.166667 µM | 0.5 µM | 1.5 µM | 4.5 µM | 13.5 µM
[1] | 107 ± 2.3 | 87.6 ± 8.5 | 127 ± 32 | 115 ± 23 | 92.6 ± 16 | 68.7 ± 3 | 14.8 ± 7.5 | 27.7 ± 5.1
[2] | 94.1 ± 27 | 106 ± 11 | 125 ± 34 | 116 ± 20 | 96.1 ± 16 | 50.7 ± 1.9 | 24.5 ± 5.4 | 19.9 ± 4.7
[3] | 106 ± 36 | 83.3 ± 13 | 134 ± 33 | 118 ± 33 | 99.4 ± 22 | 66 ± 7.1 | 17.6 ± 7.5 | 16.1 ± 3.9
[4] | 118 ± 31 | 85.2 ± 29 | 129 ± 32 | 105 ± 22 | 112 ± 28 | 38.2 ± 8.4 | 11.4 ± 5.1 | 30.9 ± 5.5

CCS(=O)(=O)c1cccc(-c2cc(C(=O)NC3CCN(C)CC3)c(C)c3[nH]c4ncc(C)cc4c23)c1 [TAK901]
cell viability [%]
Conditions | 0.00617 µM | 0.0185 µM | 0.0556 µM | 0.166667 µM | 0.5 µM | 1.5 µM | 4.5 µM | 13.5 µM
[1] | 125 ± 23 | 103 ± 6.1 | 127 ± 49 | 111 ± 46 | 126 ± 57 | 42.4 ± 14 | 1.18 ± 6.5 | -1.98 ± 9.4
[2] | 104 ± 3.3 | 109 ± 4.1 | 113 ± 30 | 121 ± 45 | 138 ± 43 | 59.4 ± 16 | 12 ± 12 | -4.29 ± 16
[3] | 106 ± 16 | 105 ± 5.8 | 95.9 ± 19 | 98.5 ± 24 | 104 ± 39 | 42.6 ± 8.9 | 4.34 ± 1.3 | -3.65 ± 7.5
[4] | 99.7 ± 11 | 109 ± 12 | 103 ± 14 | 104 ± 27 | 96.7 ± 34 | 26.5 ± 13 | -1.88 ± 6.3 | -6.14 ± 11

COc1cc2ncnc(Nc3ccc(O)c(Br)c3)c2cc1OC [WHI-P154]
cell viability [%]
Conditions | 0.00617 µM | 0.0185 µM | 0.0556 µM | 0.166667 µM | 0.5 µM | 1.5 µM | 4.5 µM | 13.5 µM
[1] | 85 ± 18 | 116 ± 23 | 105 ± 11 | 95.7 ± 33 | 58.1 ± 7.2 | 45.3 ± 6.6 | 32.1 ± 2.2 | 20.6 ± 1.1
[2] | 90.9 ± 16 | 125 ± 11 | 103 ± 4.3 | 86 ± 8.7 | 46.2 ± 6.1 | 36.9 ± 1.8 | 25 ± 6.5 | 21.8 ± 7.4
[3] | 76.9 ± 11 | 125 ± 22 | 98.1 ± 12 | 92 ± 8.6 | 67.7 ± 12 | 55.6 ± 19 | 40.4 ± 8.2 | 32.8 ± 2.4
[4] | 85.6 ± 27 | 134 ± 11 | 115 ± 8.3 | 84.5 ± 18 | 69 ± 21 | 42.4 ± 13 | 30.6 ± 2.3 | 19.7 ± 3

COCCn1c2c([n+](Cc3cnccn3)c1C)C(=O)c1ccccc1C2=O.[Br-] [YM155]
cell viability [%]
Conditions | 0.00617 µM | 0.0185 µM | 0.0556 µM | 0.166667 µM | 0.5 µM | 1.5 µM | 4.5 µM | 13.5 µM
[1] | 106 ± 22 | 87.2 ± 38 | 111 ± 16 | 91.9 ± 9.9 | 42.4 ± 4.4 | 4.91 ± 8 | -0.0383 ± 6.3 | -10.8 ± 3.4
[2] | 106 ± 18 | 104 ± 42 | 109 ± 24 | 80.8 ± 14 | 38.4 ± 4 | 6.92 ± 7.1 | 1.97 ± 6.9 | -9.67 ± 4.5
[3] | 111 ± 22 | 95.3 ± 29 | 105 ± 12 | 89.3 ± 12 | 22 ± 11 | 5.85 ± 4.9 | 4.15 ± 5.5 | -5.27 ± 4.6
[4] | 107 ± 30 | 91.5 ± 33 | 86.1 ± 17 | 32.4 ± 3.5 | 7.29 ± 8.8 | -1.02 ± 5.1 | 5.5 ± 0.64 | -4.07 ± 5.9
